Results: PubChem BioAssay (NCI)
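Following 48 hours of exposure in 96-well plates, responses at five concentrations were used to interpolate endpoints linearly. At the TGI there is no net growth.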

Key:
Test in all cases: NCI anticancer screen, dose series, 48 h
786-0 renal = tested on: 786-0 renal
SNB-75 CNS = tested on: SNB-75 CNS
MDA-N = tested on: MDA-N
MDA-MB-435 = tested on: MDA-MB-435
NCI-H460 lung = tested on: NCI-H460 lung
MDA-MB-231 breast = tested on: MDA-MB-231 breast
NCI-H522 lung = tested on: NCI-H522 lung
MALME-3M melanoma = tested on: MALME-3M melanoma
OVCAR-5 ovarian = tested on: OVCAR-5 ovarian
SK-MEL-5 melanoma = tested on: SK-MEL-5 melanoma
TK-10 renal = tested on: TK-10 renal
PC-3 prostate = tested on: PC-3 prostate
A549 NSCLC = tested on: A549 NSCLC
HS 578T breast = tested on: HS 578T breast
CCRF-CEM leukemia = tested on: CCRF-CEM leukemia
OVCAR-4 ovarian = tested on: OVCAR-4 ovarian
OVCAR-3 ovarian = tested on: OVCAR-3 ovarian
UO-31 renal = tested on: UO-31 renal
SW-620 colon = tested on: SW-620 colon
KM12 colon = tested on: KM12 colon
M14 melanoma = tested on: M14 melanoma
SF-295 CNS = tested on: SF-295 CNS
HCT-15 colon = tested on: HCT-15 colon
A498 renal = tested on: A498 renal
NCI-H23 lung = tested on: NCI-H23 lung
UACC-257 melanoma = tested on: UACC-257 melanoma
RPMI-8226 leukemia = tested on: RPMI-8226 leukemia
HOP-92 NSCLC = tested on: HOP-92 NSCLC
NCI-H226 lung = tested on: NCI-H226 lung
U251 CNS = tested on: U251 CNS
T-47D breast = tested on: T-47D breast
SF-539 CNS = tested on: SF-539 CNS
HOP-62 NSCLC = tested on: HOP-62 NSCLC
K-562 leukemia = tested on: K-562 leukemia
LOX IMVI melanoma = tested on: LOX IMVI melanoma
MOLT-4 leukemia = tested on: MOLT-4 leukemia
RXF 393 renal = tested on: RXF 393 renal
SF-268 CNS = tested on: SF-268 CNS
SK-MEL-2 melanoma = tested on: SK-MEL-2 melanoma
SK-OV-3 ovarian = tested on: SK-OV-3 ovarian
IGROV1 ovarian = tested on: IGROV1 ovarian
SNB-19 CNS = tested on: SNB-19 CNS
MCF7 breast = tested on: MCF7 breast
HL-60(TB) leukemia = tested on: HL-60(TB) leukemia
UACC-62 melanoma = tested on: UACC-62 melanoma
EKVX NSCLC = tested on: EKVX NSCLC
DU-145 prostate = tested on: DU-145 prostate
CAKI-1 renal = tested on: CAKI-1 renal
BT-549 breast = tested on: BT-549 breast
SN12C renal = tested on: SN12C renal
SR leukemia = tested on: SR leukemia
OVCAR-8 ovarian = tested on: OVCAR-8 ovarian
NCI/ADR-RES ovarian = tested on: NCI/ADR-RES ovarian
ACHN renal = tested on: ACHN renal
SK-MEL-28 melanoma = tested on: SK-MEL-28 melanoma
HCT-116 colon = tested on: HCT-116 colon
COLO 205 colon = tested on: COLO 205 colon
HT29 colon = tested on: HT29 colon
HCC-2998 colon = tested on: HCC-2998 colon

Measured: TGI

Cc1ncc(CN=Cc2ccc(Cl)cc2)c(N)n1
not listed: HCC-2998 colon
> 100 µM: all other assays above

CC(C)CCCC(C)[C@H]1CCC2[C@@H]3CCC4Cc5nc6c(nc5C[C@]4(C)C3CC[C@@]21C)CC1CC[C@@H]2C(C[C@@H](O)[C@@]3(C)C2C[C@@H]2OC4(CCC(C)CO4)C(C)[C@@H]23)[C@@]1(C)C6 (stereo partly specified)
not listed: MALME-3M melanoma | UO-31 renal | A498 renal | LOX IMVI melanoma | SK-MEL-2 melanoma | CAKI-1 renal
> 100 µM: all other assays above
